Where two headings read alike, the source gives them in different places.
What was measured:
[1] = test system: Bacillus cereus; test: Checkerboard synergy (FICI) of antibiotics with SP-BIM; type: cell-based; details: for MIC: 24 h, antibiotic alone, read-out: MIC antibiotic only
[2] = test system: Escherichia coli; test: as above; design: MIC SP-BIM 13 only / MIC in combination: Antibiotic: unit not given beside the values; details: for MIC: 24 h
[3] = test system: Enterococcus faecium; test: as above; type: cell-based; details: Enterococcus faecium, Enterococcus faecium; for MIC: 24 h, antibiotic alone, read-out: MIC antibiotic only
[4] = test system: Klebsiella pneumoniae; test: as above; type: cell-based; details: for MIC: 24 h, antibiotic alone, read-out: MIC antibiotic only
[5] = test system: Candida albicans; test: as above; design: MIC SP-BIM 13 only / MIC in combination: Antibiotic / MIC antibiotic only: unit not given beside the values
[6] = test system: Staphylococcus aureus; test: as above; type: cell-based; details: Staphylococcus aureus, Staphylococcus aureus; for MIC: 24 h, antibiotic alone, read-out: MIC antibiotic only
[7] = test system: Klebsiella pneumoniae; test: Adjuvant broth microdilution (antibiotic MIC with SP-BIM at 50 μg/mL); type: cell-based; details: Klebsiella pneumoniae; antibiotic alone; Table 7; read-out: MIC of antibiotic, No compound
[8] = test system: Escherichia coli; test: microbe, parasite or virus in culture; type: cell-based; details: read-out: MIC of antibiotic, No compound
[9] = test system: Streptococcus pneumoniae; test: Checkerboard synergy (FICI) of antibiotics with SP-BIM; type: cell-based; details: for MIC: 24 h, antibiotic alone, read-out: MIC antibiotic only
[10] = test system: MRSA; test: Adjuvant broth microdilution (antibiotic MIC with SP-BIM at 50 μg/mL); type: cell-based, Staphylococcus aureus; details: Staphylococcus aureus, antibiotic alone, Table 4, read-out: MIC of antibiotic, No compound
[11] = SP-BIM 9 in combination with the labelled antibiotic
[12] = SP-BIM 13 in combination with the labelled antibiotic
[13] = antibiotic in combination with SP-BIM 9
[14] = antibiotic in combination with SP-BIM 13
[15] = MIC of the antibiotic in combination with SP-BIM 13
[16] = Streptococcus pneumonia (title: Streptococcus pyogenes), antibiotic + SP-BIM 9
[17] = Streptococcus pneumoniae, antibiotic + SP-BIM 13

COc1cc(Cc2cnc(N)nc2N)cc(OC)c1OC [Trimethoprim, trimethoprim]
MIC ([1]; SP-BIM 9 checkerboard): > 250 µg/mL | MIC ([1]; SP-BIM 13 checkerboard): 250 µg/mL | MIC in combination, SP-BIM 9 ([1]; SP-BIM 9 concentration in combination with the labelled antibiotic): 16 µg/mL | FIC of SP-BIM 9 [1, 11]: 0.064 | FIC of SP-BIM 13 [1, 12]: 1.0 | Interpretation ([1]; antibiotic + SP-BIM 9): Synergy (Synergy: FICI≤0.5) | Σ FIC ([1]; antibiotic + SP-BIM 9): <0.1 | Interpretation ([1]; antibiotic + SP-BIM 13): Indifferent (Indifferent: FICI>1.0-4.0) | Σ FIC ([1]; antibiotic + SP-BIM 13): 2.0 | MIC in combination, Antibiotic [1, 13]: 2 µg/mL | MIC in combination, Antibiotic [1, 14]: 250 µg/mL | FIC of antibiotic ([1]; in combination with SP-BIM 9): 0.008 | FIC of antibiotic ([1]; in combination with SP-BIM 13): 1.00 | MIC ([2]; read-out: MIC antibiotic only, Escherichia coli, antibiotic alone): 2 µg/mL | MIC ([2]; read-out: MIC antibiotic only, Escherichia coli, antibiotic alone, SP-BIM 9 checkerboard): 2 µg/mL | MIC in combination: Antibiotic [2, 15]: 8 | FIC of SP-BIM 9 [2, 11]: 0.128 | FIC of SP-BIM 13 [2, 12]: 1.0 | Interpretation ([2]; antibiotic + SP-BIM 9): Antagonistic (Antagonistic: FICI≥4.0) | Σ FIC ([2]; antibiotic + SP-BIM 9): <4.1 | Interpretation ([2]; antibiotic + SP-BIM 13): Antagonistic (Antagonistic: FICI≥4.0) | Σ FIC ([2]; antibiotic + SP-BIM 13): <5.0 | MIC in combination, Antibiotic [2, 13]: 8 µg/mL | FIC of antibiotic ([2]; combination with SP-BIM 13): 4.0 | FIC of antibiotic ([2]; in combination with SP-BIM 9): 4 | MIC ([3]; SP-BIM 9 checkerboard): 4 µg/mL | MIC ([3]; SP-BIM 13 checkerboard): 4 µg/mL | FIC of SP-BIM 13 [3, 12]: 1.0 | Interpretation ([3]; antibiotic + SP-BIM 13): Antagonistic (Antagonistic: FICI≥4.0) | Σ FIC ([3]; antibiotic + SP-BIM 13): 5.0 | MIC in combination, Antibiotic [3, 14]: 16 µg/mL | FIC of antibiotic ([3]; in combination with SP-BIM 13): 4.0 | MIC ([4]; SP-BIM 9 checkerboard): 8 µg/mL | MIC ([4]; SP-BIM 13 checkerboard): 8 µg/mL | FIC of SP-BIM 9 [4, 11]: 0.5 | FIC of SP-BIM 13 [4, 12]: 1.0 | Interpretation ([4]; antibiotic + SP-BIM 9): Indifferent (Indifferent: FICI>1.0-4.0) | Σ FIC ([4]; antibiotic + SP-BIM 9): <1.5 | Interpretation ([4]; antibiotic + SP-BIM 13): Indifferent (Indifferent: FICI>1.0-4.0) | Σ FIC ([4]; antibiotic + SP-BIM 13): <3.0 | MIC in combination, Antibiotic [4, 13]: 8 µg/mL | MIC in combination, Antibiotic [4, 14]: 16 µg/mL | FIC of antibiotic ([4]; in combination with SP-BIM 9): 1 | FIC of antibiotic ([4]; in combination with SP-BIM 13): 2.0 | MIC ([5]; 24 h, read-out: MIC antibiotic only): > 250 µg/mL | MIC in combination: Antibiotic [5, 15]: 250 | FIC of SP-BIM 13 [5, 12]: 1.0 | Interpretation ([5]; antibiotic + SP-BIM 13): Indifferent (Indifferent: FICI>1.0-4.0) | Σ FIC ([5]; antibiotic + SP-BIM 13): <2.0 | FIC of antibiotic ([5]; combination with SP-BIM 13): 1.0 | MIC ([6]; SP-BIM 9 checkerboard): 1 µg/mL | MIC ([6]; SP-BIM 13 checkerboard): 1 µg/mL | FIC of SP-BIM 9 [6, 11]: 0.02 | FIC of SP-BIM 13 [6, 12]: 0.5 | Interpretation ([6]; antibiotic + SP-BIM 9): Indifferent (Indifferent: FICI>1.0-4.0) | Σ FIC ([6]; antibiotic + SP-BIM 9): <2.02 | Interpretation ([6]; antibiotic + SP-BIM 13): Antagonistic (Antagonistic: FICI≥4.0) | Σ FIC ([6]; antibiotic + SP-BIM 13): 4.5 | MIC in combination, Antibiotic [6, 13]: 2.0 µg/mL | MIC in combination, Antibiotic [6, 14]: 4 µg/mL | FIC of antibiotic ([6]; in combination with SP-BIM 9): 2.00 | FIC of antibiotic ([6]; in combination with SP-BIM 13): 4.0 | MIC [7]: 16 µg/mL | MIC [8]: 2 µg/mL | FIC of SP-BIM 9 ([9]; Streptococcus pneumonia (title: Streptococcus pyogenes), SP-BIM 9 in combination with the labelled antibiotic): 0.06 | Interpretation [9, 16]: Synergy (Synergy: FICI≤0.5) | Σ FIC [9, 16]: <0.31 | MIC in combination, Antibiotic ([9]; Streptococcus pneumonia (title: Streptococcus pyogenes), antibiotic in combination with SP-BIM 9): 8 µg/mL | FIC of antibiotic ([9]; Streptococcus pneumonia (title: Streptococcus pyogenes), in combination with SP-BIM 9): 0.25 | MIC ([9]; Streptococcus pneumoniae, Streptococcus pneumonia (title: Streptococcus pyogenes), SP-BIM 9 checkerboard): 32 µg/mL | MIC ([9]; Streptococcus pneumoniae, Streptococcus pneumoniae, SP-BIM 13 checkerboard): 32 µg/mL | FIC of SP-BIM 13 ([9]; Streptococcus pneumoniae, SP-BIM 13 in combination with the labelled antibiotic): 1.0 | Interpretation [9, 17]: Antagonistic (Antagonistic: FICI≥4.0) | Σ FIC [9, 17]: <4.9 | MIC in combination, Antibiotic ([9]; Streptococcus pneumoniae, antibiotic in combination with SP-BIM 13): 125 µg/mL | FIC of antibiotic ([9]; Streptococcus pneumoniae, in combination with SP-BIM 13): 3.9 | MIC [10]: 250 µg/mL

Reference: US12285407B2, “Bis-indolylmethane derivatives and uses thereof” (The University of The West Indies, priority 2018, dated 2025)
